{"source": "patent US20040138094A1", "about": "“Treatment regimes” (priority 2003, published 2004)", "key": {"[1]": {"test_system": "ABCA1 mRNA in THP1 macrophages", "assay": "ABCA1 mRNA expression by RTQ-PCR in THP1 macrophages", "type": "cell-based, human", "conditions": "for Induction of ABCA1 mRNA expression (in words): THP1 macrophages, 100 nM, FIG. 1A", "method": "(§1) THP1 human monocyte cells (ATCC TID-202), in 6-well plates at a density of 1×10^6 cells/well in RPMI 1640 medium containing 10% FBS, were differentiated into macrophages by treatment with PMA (100 ng/ml) for 5 days. 1BR3N human skin fibroblasts (ECACC 90020508) and FHS74 human intestinal cells (ATCC CCL-241) were plated in 6 well plates at a density of 1×10^6 cells/well in the recommended maintenance media. Cells were treated with vehicle (0.1% DMSO) or test compound for 48 h prior to harvesting. Total RNA was generated using the Qiagen RNeasy Mini Kit and DNase treated according to the manufacturer's protocol (Ambion). ABCA1 expression was analysed using RTQ-PCR on an ABI PRISM 7700 sequence detection system (P. E. Applied Biosystems). Primer/probe sequences used were as follows: ABCA1 forward primer 5′-[…]-3′, (Seq ID No:1) reverse primer 5′-[…]-3′, (Seq ID No:2) probe 5′FAM-[…]-TAMRA3′ (Seq ID No:3) Expression data were normalised to 18S as described by the vendor."}, "THP1 macrophages": {"test_system": "THP1 macrophages", "assay": "ApoA1-specific cholesterol efflux from THP1 macrophages", "type": "cell-based, human", "method": "(§2) Following differentiation to macrophages, THP1 cells were washed in serum-free medium and incubated in 5% FBS medium containing 1 μCi/mL of [^3H]-cholesterol (New England Nuclear) and 0.2% fatty acid-free BSA (faf BSA) for a further 24 h. The cells were washed in serum-free medium and then incubated for 24 h in serum-free medium supplemented with 1.5% faf BSA±test compound or vehicle (0.1% DMSO). The equilibration medium was removed and the cells washed twice in serum-free medium. Serum-free DMEM containing compound±purified human apolipoprotein (apo) Al ([…], Athens Research & Technology) was added. The cells were maintained for 24 h before medium and cell extract samples were generated. Scintillation counting was performed to determine the percentage cellular cholesterol efflux±apoAl. 1BR3N human skin fibroblast cells were plated in 6-well plates at a density of 1×10^6 cells/well in DMEM medium containing 10% FBS and cultured for 24 h. Efflux studies were performed as in the THP1 macrophages except that the cells were maintained for 48 h before scintillation counting was performed."}, "[2]": {"test_system": "ABCA1 mRNA in FHS74 human intestinal cells", "assay": "ABCA1 mRNA expression by RTQ-PCR in FHS74 human intestinal cells", "type": "cell-based", "method": "as §1"}, "[3]": {"test_system": "1BR3N human skin fibroblasts", "assay": "ApoA1-specific cholesterol efflux from 1BR3N human skin fibroblasts", "type": "cell-based", "method": "as §2"}, "[4]": {"test_system": "ABCA1 mRNA in 1BR3N human skin fibroblasts", "assay": "ABCA1 mRNA expression by RTQ-PCR in 1BR3N human skin fibroblasts", "type": "cell-based", "method": "as §1"}, "ABCA1 in macrophages": {"test_system": "ABCA1 in macrophages", "conditions": "50 μM, reported in ref 16; cited from earlier work"}, "macrophages": {"test_system": "macrophages", "conditions": "50 μM, reported in ref 16; cited from earlier work"}, "[5]": {"conditions": "THP1 macrophages, 100 nM, FIG. 1B"}}, "data": [{"compound": "CC(C)(Sc1ccc(CCN(CCCCC2CCCCC2)C(=O)NC2CCCCC2)cc1)C(=O)O", "note": "[GW7647, reference compound]", "values": [{"measurement": "Induction of ABCA1 mRNA expression (in words)", "setting": "[1]", "result": "only a weak effect"}, {"measurement": "Effect on cholesterol efflux (in words)", "setting": "THP1 macrophages; [5]", "result": "ineffective"}]}, {"compound": "COC(=O)c1ccccc1N[C@@H](Cc1ccc(OCCc2nc(-c3ccccc3)oc2C)cc1)C(=O)O", "note": "[GW7845, reference compound]", "values": [{"measurement": "Induction of ABCA1 mRNA expression (in words)", "setting": "[1]", "result": "also induced ABCA1 expression"}, {"measurement": "Effect on cholesterol efflux (in words)", "setting": "THP1 macrophages; [5]", "result": "ineffective"}]}, {"compound": "Cc1cc(SCc2sc(-c3ccc(C(F)(F)F)cc3)nc2C)ccc1OCC(=O)O", "note": "[GW501516, 2-(2-methyl-4[({4-methyl-2[4-(trifluoromethyl)phenyl]-1,3-thiazol-5-yl}methyl)sulfanyl]phenoxy}acetic acid]", "values": [{"measurement": "Increase in ABCA1 expression", "setting": "[2]; FHS74 human intestinal cells", "result": 2.1, "unit": "fold"}, {"measurement": "ABCA1 mRNA (% increase)", "setting": "[2]; FHS74 intestinal, 48 h, (GW-vehicle)/vehicle × 100, mean ± S.D., triplicate", "result": "115 ± 30", "unit": "%"}, {"measurement": "ABCA1 mRNA (% increase)", "setting": "[1]; THP1 macrophage, 48 h, (GW-vehicle)/vehicle × 100, mean ± S.D., triplicate", "result": "460 ± 150", "unit": "%"}, {"measurement": "Induction of ABCA1 mRNA expression (in words)", "setting": "[1]", "result": "strong induction"}, {"measurement": "Cholesterol efflux (% increase)", "setting": "[3]; 1BR3N fibroblast, (GW-vehicle)/vehicle × 100, mean ± S.D., triplicate", "result": "110 ± 10", "unit": "%"}, {"measurement": "Increase in apoA1-specific cholesterol efflux", "setting": "[3]; 1BR3N human skin fibroblasts", "result": 2, "unit": "fold"}, {"measurement": "ABCA1 mRNA (% increase)", "setting": "[4]; 1BR3N fibroblast, 48 h, (GW-vehicle)/vehicle × 100, mean ± S.D., triplicate", "result": "240 ± 25", "unit": "%"}, {"measurement": "Increase in ABCA1 expression", "setting": "[4]; 1BR3N human skin fibroblasts", "result": 3.4, "unit": "fold"}, {"measurement": "Cholesterol efflux (% increase)", "setting": "THP1 macrophages; THP1 macrophage, (GW-vehicle)/vehicle × 100, mean ± S.D., triplicate", "result": "100 ± 15", "unit": "%"}, {"measurement": "Increase in cholesterol efflux to apoA1", "setting": "THP1 macrophages; [5]", "result": 2, "unit": "fold"}]}, {"compound": "Cc1cccc(Nc2cc(Cl)nc(SCC(=O)O)n2)c1C", "note": "[Wy14,643]", "values": [{"measurement": "ABCA1 expression (in words)", "setting": "ABCA1 in macrophages", "result": "induces"}, {"measurement": "Cholesterol efflux from macrophages (in words)", "setting": "macrophages", "result": "induces"}]}]}
